Source: patent publication US20240408068A1, “Helicase Primase Inhibitors For Treating Cancer In A Combination Therapy With Oncolytic Viruses” (priority 2018, published 2024)
Where two headings read alike, the source gives them in different places.

Columns and labels:
HSV-1 [1] = assay: In vitro activity, HSV-1 infected Vero cells; assay type: cell-based
Method: (§1) The in vitro activity of the new compounds was measured as described in WO2017/174640 and in WO2019/068817.

HSV-1 ACV resistant = assay: In vitro activity, HSV-1 ACV resistant; assay type: cell-based; settings: Human alphaherpesvirus 1
Method: as §1

HSV-2 = assay: In vitro activity, HSV-2 infected Vero cells; assay type: cell-based
Method: as §1

HSV-1 [2] = assay: Second oHSV experiment (repeated virus injection): number of dead animals by day; assay type: in vivo, mice; settings: for Number of dead animals by day: n=10; for rescue of mice from virus-induced death: second experiment, multiple intratumoral HSV injections, 10 mg/kg po
Method: The methods of the first experiment were used and the experimental design was modified in the second experiment as follows: • 1. The oncolytic herpesvirus was, in contrast to the first experiment, injected multiple times at a constant dose at distinct intervals. • 2. In addition to Example 7(-) used in the first experiment, the efficacy of a series of helicase primase inhibitors was tested in the second experiment to enable the class of helicase primase inhibitors in general.
Pharmacological animal groups (10 animals per group, 80 animals in total and 5 animals per group in the satellite group; 50 animals in total used for analysis of plasma and tumor samples) were organized as such: • 1. Control virus-untreated group: test compound vehicle, oral gavage, once a day, for 2 days and starting 48 h after each virus injection time-point. • 2. Control virus vehicle-treated group: 100 μL of virus vehicle by intratumoral injection when tumors reached an average volume of ˜50 mm^3 (i.e. on day 11) then 2 injections spaced 5 days apart from each other; with test compound vehicle, oral gavage, once a day, for 2 days and starting 48 h after each virus injection time-point. • 3. HSV-1 (5×10^7 pfu)-treated group: 100 μL of HSV-1 (5×10^7) by intratumoral injection when tumors reached an average volume of ˜50 mm^3 (i.e. on day 11) then 2 injections spaced 5 days apart from each other; with test compound vehicle, oral gavage, once a day, for 2 days and starting 48 h after each virus injection time-point and with anti-PD-1 vehicle, intraperitoneal injection (100 μL PBS) on the same day as the virus injection, and then 3 administrations spaced 3 days apart from each other (days 11, 14, 17 and 20). • 4. HSV-1 (5×10^7 pfu)+anti-PD1-treated group: 100 μL of HSV-1 (5×10^7 pfu) intratumoral injection when tumors reached an average volume of ˜50 mm^3 (i.e. on day 11) then 2 injections spaced 5 days apart from each other; with test compound vehicle, oral gavage, once a day, for 2 days and starting 48 h after each virus injection time-point and with anti-PD-1 (5 mg/kg), intraperitoneal injection on the same day as the virus injection, and then 3 administrations spaced 3 days apart from each other (days 11, 14, 17 and 20). • 5. HSV-1 (5×10^7 pfu)-Example 10—treated group: 100 μL of HSV-1 (5×10^7 pfu) intratumoral injection when tumors reached an average volume of ˜50 mm^3 (i.e. on day 11) then 2 injections spaced 5 days apart from each other; with Example 10 (10 mg/kg), oral gavage, once a day, for 2 days and starting 48 h after each virus injection time-point (days 13, 14, 18, 19, 23 and 24). • 6. HSV-1 (5×10^7 pfu)-pritelivir-treated group: 100 μL of HSV-1 (5×10^7 pfu) intratumoral injection when tumors reached an average volume of ˜50 mm^3 (i.e. on day 11) then 2 injections spaced 5 days apart from each other; with pritelivir (10 mg/kg), oral gavage, once a day, for 2 days and starting 48 h after each virus injection time-point (days 13, 14, 18, 19, 23 and 24). • 7. HSV-1 (5×10^7 pfu)-amenamevir-treated group: 100 μL of HSV-1 (5×10^7 pfu) intratumoral injection when tumors reached an average volume of ˜5 0mm^3 (i.e. on day 11) then 2 injections spaced 5 days apart from each other; with amenamevir (10 mg/kg), oral gavage, once a day, for 2 days and starting 48 h after each virus injection time-point (days 13, 14, 18, 19, 23 and 24). • 8. HSV-1 (5×10^7 pfu)-Example 10+anti-PD1-treated group: 100 μL of HSV-1 (5×10^7 pfu) intratumoral injection when tumors reached an average volume of ˜50 mm^3 (i.e. on day 11) then 2 injections spaced 5 days apart from each other; with Example 10 (10 mg/kg), oral gavage, once a day, for 2 days and starting 48 h after each virus injection time-point (days 13, 14, 18, 19, 23 and 24) and with anti-PD-1 (5 mg/kg), intraperitoneal injection on the same day as the virus injection and then 3 administrations spaced 3 days apart each other (days 11, 14, 17 and 20). Results of the Second oHSV Experiment […]

carboanhydrase = settings: described in WO2019/068817; cited from earlier work
[3] = described in WO2019/068817; cited from earlier work

## Cc1nc(N(C)C(=O)C2Cc3ccc(-c4cc(F)ccc4F)cc3C2)sc1S(N)(=O)=O (racemic) [Example 1, 5-(2,5-Difluorophenyl)-N-methyl-N-(4-methyl-5-sulfamoylthiazol-2-yl)-2,3-di-hydro-1H-indene-2-carboxamide]
HSV-1 [1]; Human alphaherpesvirus 1, Vero
  IC50: 16 nM
HSV-1 ACV resistant
  IC50: 16 nM
HSV-2; Human alphaherpesvirus 2, Vero
  IC50: 50 nM

## Cc1nc(N(C)C(=O)C2Cc3ccc(-c4cc(F)ccc4F)cc3C2)sc1S(C)(=N)=O (racemic) [Example 4, 5-(2,5-Difluorophenyl)-N-methyl-N-(4-methyl-5-(S-methylsulfonimidoyl)thiazol-2-yl)-2,3-dihydro-1H-indene-2-carboxamide]
HSV-1 [1]; Human alphaherpesvirus 1, Vero
  IC50: 750 nM
HSV-1 ACV resistant
  IC50: 750 nM
HSV-2; Human alphaherpesvirus 2, Vero
  IC50: 1500 nM

## Cc1nc(N(C)C(=O)C2Cc3ccc(-c4cc(F)ccc4F)cc3C2)sc1S(C)(=N)=O (single isomer, unassigned) [Example 5, 5-(2,5-Difluorophenyl)-N-methyl-N-(4-methyl-5-(S-methylsulfonimidoyl)thiazol-2-yl)-2,3-dihydro-1H-indene-2-carboxamide]
HSV-1 [1]
  IC50: 20000 nM
HSV-2
  IC50: 20000 nM

## Cc1nc(N(C)C(=O)C2Cc3ccc(-c4cc(F)ccc4F)cc3C2)sc1S(C)(=N)=O (single isomer, unassigned) [Example 6, 5-(2,5-Difluorophenyl)-N-methyl-N-(4-methyl-5-(S-methylsulfonimidoyl)thiazol-2-yl)-2,3-dihydro-1H-indene-2-carboxamide]
HSV-1 [1]
  IC50: 75 nM
HSV-2
  IC50: 750 nM

## Cc1nc(N(C)C(=O)C2Cc3ccc(-c4cc(F)ccc4F)cc3C2)sc1S(C)(=N)=O (single isomer, unassigned) [Example 8, 5-(2,5-Difluorophenyl)-N-methyl-N-(4-methyl-5-(S-methylsulfonimidoyl)thiazol-2-yl)-2,3-dihydro-1H-indene-2-carboxamide]
HSV-1 [1]
  IC50: 175 nM
HSV-2
  IC50: 1500 nM

## Cc1nc(N(C)C(=O)C2Cc3ccc(-c4cc(F)ccc4F)cc3C2)sc1S(C)(=N)=O (single isomer, unassigned) [Example 9, 5-(2,5-Difluorophenyl)-N-methyl-N-(4-methyl-5-(S-methylsulfonimidoyl)thiazol-2-yl)-2,3-dihydro-1H-indene-2-carboxamide]
HSV-1 [1]
  IC50: 10000 nM
HSV-2
  IC50: 45000 nM

## Cc1nc(N(C)C(=O)C2Cc3ccc(-c4cc(F)ccc4F)cc3C2)sc1S(N)(=O)=O (single isomer, unassigned; (+)) [Example 3, (+)-5-(2,5-difluorophenyl)-N-methyl-N-(4-methyl-5-sulfamoylthiazol-2-yl)-2,3-dihydro-1H-indene-2-carboxamide]
HSV-1 [1]
  IC50: 0.5 nM
HSV-2
  IC50: 16 nM

## Cc1nc(N(C)C(=O)C2Cc3ccc(-c4cc(F)ccc4F)cc3C2)sc1S(N)(=O)=O (single isomer, unassigned; (-)) [Example 2, (−)-5-(2,5-Difluorophenyl)-N-methyl-N-(4-methyl-5-sulfamoylthiazol-2-yl)-2,3-dihydro-1H-indene-2-carboxamide]
HSV-1 [1]
  IC50: 2000 nM
HSV-2
  IC50: 16000 nM

## Nc1nc2c(ncn2COCCO)c(=O)[nH]1 [Acyclovir, reference compound]
HSV-1 [1]; Human alphaherpesvirus 1, Vero
  IC50: 500 to 3000 nM
HSV-1 ACV resistant
  IC50: > 25000 nM
HSV-2; Human alphaherpesvirus 2, Vero
  IC50: 500 to 3000 nM

## Cc1nc(N(C)C(=O)Cc2ccc(-c3cc(F)ccc3F)cc2)sc1S(N)(=O)=O [Example 10, 2-(2′,5′-Difluoro-[1,1′-biphenyl]-4-yl)-N-methyl-N-(4-methyl-5-sulfamoylthiazol-2-yl)acetamide]
HSV-1 [2]; day 7, HSV-1 5×10^7 pfu + Example 10 10 mg/kg po
  Number of dead animals by day: 0
HSV-1 [2]; day 7, HSV-1 5×10^7 pfu + anti-PD-1 5 mg/kg ip + Example 10 10 mg/kg po
  Number of dead animals by day: 0
HSV-1 [2]; day 9, HSV-1 5×10^7 pfu + Example 10 10 mg/kg po
  Number of dead animals by day: 0
HSV-1 [2]; day 9, HSV-1 5×10^7 pfu + anti-PD-1 5 mg/kg ip + Example 10 10 mg/kg po
  Number of dead animals by day: 0
HSV-1 [2]; day 11, HSV-1 5×10^7 pfu + Example 10 10 mg/kg po
  Number of dead animals by day: 0
HSV-1 [2]; day 11, HSV-1 5×10^7 pfu + anti-PD-1 5 mg/kg ip + Example 10 10 mg/kg po
  Number of dead animals by day: 0
HSV-1 [2]; day 14, HSV-1 5×10^7 pfu + Example 10 10 mg/kg po
  Number of dead animals by day: 0
HSV-1 [2]; day 14, HSV-1 5×10^7 pfu + anti-PD-1 5 mg/kg ip + Example 10 10 mg/kg po
  Number of dead animals by day: 0
HSV-1 [2]; day 16, HSV-1 5×10^7 pfu + Example 10 10 mg/kg po
  Number of dead animals by day: 0
HSV-1 [2]; day 16, HSV-1 5×10^7 pfu + anti-PD-1 5 mg/kg ip + Example 10 10 mg/kg po
  Number of dead animals by day: 0
HSV-1 [2]; day 18, HSV-1 5×10^7 pfu + Example 10 10 mg/kg po
  Number of dead animals by day: 1
HSV-1 [2]; day 18, HSV-1 5×10^7 pfu + anti-PD-1 5 mg/kg ip + Example 10 10 mg/kg po
  Number of dead animals by day: 1
HSV-1 [2]; day 21, HSV-1 5×10^7 pfu + Example 10 10 mg/kg po
  Number of dead animals by day: 1
HSV-1 [2]; day 21, HSV-1 5×10^7 pfu + anti-PD-1 5 mg/kg ip + Example 10 10 mg/kg po
  Number of dead animals by day: 1
HSV-1 [2]
  rescue of mice from virus-induced death: the mice can be rescued

## Cc1cccc(C)c1N(CC(=O)Nc1ccc(-c2ncon2)cc1)C(=O)C1CCS(=O)(=O)CC1 [amenamevir, Amenamevir]
HSV-1 [2]; day 7, HSV-1 5×10^7 pfu + amenamevir 10 mg/kg po
  Number of dead animals by day: 0
HSV-1 [2]; day 9, HSV-1 5×10^7 pfu + amenamevir 10 mg/kg po
  Number of dead animals by day: 0
HSV-1 [2]; day 11, HSV-1 5×10^7 pfu + amenamevir 10 mg/kg po
  Number of dead animals by day: 0
HSV-1 [2]; day 14, HSV-1 5×10^7 pfu + amenamevir 10 mg/kg po
  Number of dead animals by day: 0
HSV-1 [2]; day 16, HSV-1 5×10^7 pfu + amenamevir 10 mg/kg po
  Number of dead animals by day: 0
HSV-1 [2]; day 18, HSV-1 5×10^7 pfu + amenamevir 10 mg/kg po
  Number of dead animals by day: 2
HSV-1 [2]; day 21, HSV-1 5×10^7 pfu + amenamevir 10 mg/kg po
  Number of dead animals by day: 2
HSV-1 [2]
  rescue of mice from virus-induced death: the mice can be rescued

## Cc1nc(N(C)C(=O)Cc2ccc(-c3cc(F)ccc3F)cc2)sc1[S@@](C)(=N)=O [drawing 1]
carboanhydrase
  off-target carboanhydrase activity: no off-target carboanhydrase activity
[3]
  brain penetration: improved brain penetration

## Cc1nc(N(C)C(=O)Cc2ccc(-c3ccccn3)cc2)sc1S(N)(=O)=O [pritelivir, Pritelivir]
HSV-1 [2]; day 7, HSV-1 5×10^7 pfu + pritelivir 10 mg/kg po
  Number of dead animals by day: 0
HSV-1 [2]; day 9, HSV-1 5×10^7 pfu + pritelivir 10 mg/kg po
  Number of dead animals by day: 0
HSV-1 [2]; day 11, HSV-1 5×10^7 pfu + pritelivir 10 mg/kg po
  Number of dead animals by day: 0
HSV-1 [2]; day 14, HSV-1 5×10^7 pfu + pritelivir 10 mg/kg po
  Number of dead animals by day: 0
HSV-1 [2]; day 16, HSV-1 5×10^7 pfu + pritelivir 10 mg/kg po
  Number of dead animals by day: 0
HSV-1 [2]; day 18, HSV-1 5×10^7 pfu + pritelivir 10 mg/kg po
  Number of dead animals by day: 0
HSV-1 [2]; day 21, HSV-1 5×10^7 pfu + pritelivir 10 mg/kg po
  Number of dead animals by day: 0
HSV-1 [2]
  rescue of mice from virus-induced death: the mice can be rescued
